Columns and labels:
[1] = Solubility in water at 20° C.; format: physicochemical
[2] = Bleaching of softwood D0 pulp with H2O2 and catalyst, whiteness; conditions: 2.5 microM catalyst, 10 kg/t H2O2, 8 kg/t NaOH, 50° C., 1 h, 5% consistency; SD 0.3 points
Experimental: Softwood chemical mill pulp obtained after the D0 bleaching stage (abbreviated as softwood D0 pulp) was used. The bleaching experiments were conducted on small scale in 100 ml vessels using the pulps at 5% consistency (i.e., 5% oven dry wood pulp; 95% aqueous bleaching liquor). The mixture contained 2.5 microM of the catalyst (as chloride, sulfate, acetate and PF6 salts—see Table), 1 kg/t of MgSO4, 8 kg/t of NaOH and 10 kg/t of H2O2 (kg/t: kg chemicals per ton oven dry pulp). The mixture was manually stirred to ensure good distribution of the bleaching chemicals. Then the vessel was placed in a water bath and stirred regularly at 50° C. for 1 h. All experiments were carried out at least 6 times. As a reference the experiment was conducted without catalyst. The dosages and exact reaction conditions are given in the sections below. After the allocated bleaching times the pulp batches were removed from the vessels, filtered using a Buchner funnel, and washed with 100 ml of water. From the resultant samples of bleached pulp 4×4 cm discs were made having a flat surface on one side. The softwood D0 pulp samples were dried using a L&W Rapid Dryer (Lorentzen and Wetter) at 90° C. for 20 minutes. Whiteness of the bleached pulps was determined using L, a*, b* values as defined by CIE (Commission Internationale de l'Eclairage) of the dried pad was measured using a Minolta spectrophotometer.

[3] = Stability of aqueous catalyst salt solutions (UV/Vis of 1000× diluted solutions); format: physicochemical; conditions: 2 weeks; for precipitate formation: pH 2 to 5, 37° C.
Experimental: Stability of aqueous solutions of chloride, sulphate and acetate salts are provided. Solutions of the bleach catalyst with chloride, sulphate and acetate anion were brought to pH 2, 3, 4 and 5 by hydrochloric acid, sulphuric acid and acetic acid respectively. For the acetate this could only give pH 5. For the lower pH values sulphuric acid was used in the case of acetate. The solutions were kept at 37° C. and after 2 weeks the stability was monitored from the absorptions in the UV/Vis spectra of 1000× diluted solutions.

SMILES | solubility in water [1] | water solubility [1] | Whiteness [2] | % (UV/Vis) remaining ([3]; pH 2, 37° C.) | precipitate formation [3] | % (UV/Vis) remaining ([3]; pH 3, 37° C.) | % (UV/Vis) remaining ([3]; pH 4, 37° C.) | % (UV/Vis) remaining ([3]; pH 5, 37° C.)
CN1CCN(C)CCN(C)CC1.CN1CCN(C)CCN(C)CC1.F[P-](F)(F)(F)(F)F.F[P-](F)(F)(F)(F)F.[Mn+4].[Mn+4].[O-2].[O-2].[O-2] [[Mn2O3(Me3—TACN)2]•(PF6)2, [Mn2O3(Me3-TACN)2].(PF6)2] | 1.08 % (w/w) | 10.8 g per liter | 84.4 | – | – | – | – | –
CC(=O)[O-].CC(=O)[O-].CN1CCN(C)CCN(C)CC1.CN1CCN(C)CCN(C)CC1.[Mn+4].[Mn+4].[O-2].[O-2].[O-2] [[Mn2O3(Me3—TACN)2]•(OAc)2, [Mn2O3(Me3-TACN)2].(OAc)2] | more than 70 gram/Liter | – | 84.0 | 87% | (No precipitate is formed) | 91% | 93% | 95%
CN1CCN(C)CCN(C)CC1.CN1CCN(C)CCN(C)CC1.[Cl-].[Cl-].[Mn+4].[Mn+4].[O-2].[O-2].[O-2] [[Mn2O3(Me3—TACN)2]•Cl2, [Mn2O3(Me3-TACN)2].(Cl)2] | – | – | 84.3 | 100% | (Precipitate is formed at all pH's) | 100% | 97% | 94%
CN1CCN(C)CCN(C)CC1.CN1CCN(C)CCN(C)CC1.O=S(=O)([O-])[O-].[Mn+4].[Mn+4].[O-2].[O-2].[O-2] [[Mn2O3(Me3—TACN)2]•SO4, [Mn2O3(Me3-TACN)2].SO4] | – | – | 84.1 | 78% | (Precipitate only at pH = 5) | 96% | 94% | 98%

Reference: patent publication US8722608B2, “Process of bleaching” (Conopco, Inc., priority 2005, dated 2014)
